US7419683B2, “Method of inhibiting side effects of pharmaceutical compositions containing amphiphilic vehicles or drug carrier molecules” (United States of America as Represented by the Secretary of …, priority 1998, dated 2008)

What was measured:
SC5b-9 = experiment: In vitro complement activation in human serum, SC5b-9 ELISA; format: biochemical; conditions: for C activation (serum SC5b-9), result in words: human sera, Table 1
Method: Non-anticoagulated blood was drawn from healthy volunteers and from cancer patients according to protocols approved, as additions to existing protocols, by the Walter Reed Army Medical Center Human Use Committee, and by the University of Southern California (USC)/Norris Cancer Center Institutional Review Board and General Clinical Research Center. […] Blood was allowed to clot at room temperature and the serum was stored at −80° C. It was thawed and kept at 4° C. before incubation with the test agents.
To assess C activation in vitro we measured the drug-induced rise of two C split products, SC5b-9 and Bb, using ELISA kits from Quidel Corp. (San Diego, Calif.). SC5b-9 is the soluble, S-protein-bound form of the terminal complex, a sensitive measure of C5a formation through both the classical and the alternative pathways, while Bb is the proteolytically active fragment of factor B, a specific marker of C activation through the alternative pathway. The test agents were incubated with the serum in a shaking water bath (80 rpm cycle) for 30 to 60 min at 37° C. at an activator to serum volume ratio of 1:5 or 1:10. […] The reaction was stopped by adding 20 volume of the specimen diluent from the ELISA kits containing PBS, 0.05% Tween-20, protein stabilizers, and 0.01% Thimerosal.

miniature pigs = conditions: previous study; cited from earlier work
[1] = system: liposome-induced pulmonary hypertension; experiment: Inhibition of liposome-induced pulmonary hypertension (PAP) in pigs; format: in vivo, pig
Method: FIG. 12. The effects of complement inhibitors and indomethacin on liposome-induced pulmonary hypertension. Panel A presents the standard liposome-induced changes in PAP before and at different times after the administration of the indicated inhibitors, each in a different animal. […] Inhibitors were injected in the jugular vein in 4-8 mL PBS, at the following doses: GS1, 1.6 mg/kg (squares), sCR1, 0.2 mg/kg (open circles) and 2 mg/kg (closed circles); indomethacin, 5 mg/kg (triangles).
Experiments were-performed in accordance with the guidelines of the Committee on Animal Care of the Uniformed Services University of the Health Sciences and with the Guide for the Care and the Use of Laboratory Animals (Department of Health and Human Services, Publication No. [NIH] 86-23). Female Yorkshire swine (32-48 kg) were sedated with i.m. ketamine and anesthetized with halothane by nose cone. The trachea was intubated and anesthesia was maintained with halothane (1%). […] Systemic vascular resistance (SVR) and pulmonary vascular resistance (PVR) were calculated from SAP, PAP, CO, CVP and LVEDP, using standard formulas (Fontana, J. L. et al., 1995, Anesth. Analg. 80, 219) Blood pressure values and leads II and V5 of the electrocardiogram (ECG) were obtained continually.

[2] = pigs; cited from earlier work
[3] = system: LEH-induced complement activation; conditions: human serum, in vitro, cited from earlier work
[4] = system: Cremophor EL-induced complement activation; experiment: Inhibition of Cremophor EL-induced complement activation (SC5b-9) in human serum; format: biochemical; conditions: Cremophor EL 8.8 mg/ml, serum of a healthy subject
Method: FIG. 4. Inhibition of Cremophor EL-induced complement activation by soluble complement receptor type 1 (sCR1): dose activity relationship. […] Serum levels of SC5b-9 were measured by enzyme-linked immunoasorbent assay, as described. Bars=mean values with 95% confidence interval, obtained from triplicate wells. The rise of SC5b-9 relative to PBS was statistically significant at *, P=0.0006 and **, P=0.002 (Student's two-sample t test, two-tailed).
To assess C activation in vitro we measured the drug-induced rise of two C split products, SC5b-9 and Bb, using ELISA kits from Quidel Corp. (San Diego, Calif.). SC5b-9 is the soluble, S-protein-bound form of the terminal complex, a sensitive measure of C5a formation through both the classical and the alternative pathways, while Bb is the proteolytically active fragment of factor B, a specific marker of C activation through the alternative pathway. The test agents were incubated with the serum in a shaking water bath (80 rpm cycle) for 30 to 60 min at 37° C. at an activator to serum volume ratio of 1:5 or 1:10. Typically, 5 μl of drug (stock) was added to 45 μl of serum placed in Eppendorf tubes. The reaction was stopped by adding 20 volume of the specimen diluent from the ELISA kits containing PBS, 0.05% Tween-20, protein stabilizers, and 0.01% Thimerosal.

[5] = system: C-mediated harmful effects; conditions: in vitro; cited from earlier work

CC(=O)O[C@H]1C(=O)[C@@]2(C)[C@H]([C@H](OC(=O)c3ccccc3)[C@]3(O)C[C@H](OC(=O)[C@H](O)[C@@H](NC(=O)c4ccccc4)c4ccccc4)C(C)=C1C3(C)C)[C@]1(OC(C)=O)CO[C@@H]1C[C@@H]2O [Paclitaxel, paclitaxel]
SC5b-9 (SC5b-9; paclitaxel 100 ug/mL, bar marked * in FIG. 2 (with 95% confidence interval)): 67.4 (65.8-69) ug/ml

N.N.O=C([O-])C1(C(=O)[O-])CCC1.[Pt+2] [carboplatin]
C activation (serum SC5b-9), result in words (SC5b-9): did not cause C activation | SC5b-9 (SC5b-9; subject 2 (healthy donor), dose 100 μg/ml, no ethanol): 3.4 µg/mL | SC5b-9 (SC5b-9; subject 4 (cancer patient), dose 100 μg/ml, no ethanol): 5.5 µg/mL

CC(=O)O[C@@]12CO[C@@H]1C[C@H](O)[C@@]1(C)C(=O)[C@H](O)C3=C(C)[C@@H](OC(=O)[C@H](O)[C@@H](NC(=O)OC(C)(C)C)c4ccccc4)C[C@@](O)([C@@H](OC(=O)c4ccccc4)[C@H]21)C3(C)C [docetaxel]
C activation (serum SC5b-9), result in words (SC5b-9): caused C activation only when the drug (formulated in Tween-80) was added to human serum together with ethanol | SC5b-9 (SC5b-9; subject 1 (healthy donor), dose 100 μg/ml (H2O), 30 min 37° C.): 1.8 µg/mL | SC5b-9 (SC5b-9; subject 1 (healthy donor), dose 100 μg/ml with 0.8% ethanol, 30 min 37° C.): 16.0 µg/mL | SC5b-9 (SC5b-9; subject 2 (healthy donor), dose 100 μg/ml with 0.8% ethanol): 28.6 µg/mL | SC5b-9 (SC5b-9; subject 3 (healthy donor), dose 100 μg/ml (H2O)): 0.2 µg/mL | SC5b-9 (SC5b-9; subject 4 (cancer patient), dose 100 μg/ml with 0.8% ethanol): 38.5 µg/mL

CCO [ethanol]
C activation (serum SC5b-9), result in words (SC5b-9): did not cause significant elevation of serum SC5b-9 | SC5b-9 (SC5b-9; subject 2 (healthy donor), dose 0.8% (final serum concentration)): 3.2 µg/mL | SC5b-9 (SC5b-9; subject 3 (healthy donor), dose 0.4% (final serum concentration)): 0.5 µg/mL | SC5b-9 (SC5b-9; subject 4 (cancer patient), dose 0.8% (final serum concentration)): 6.6 µg/mL

COc1ccc2c(c1)c(CC(=O)O)c(C)n2C(=O)c1ccc(Cl)cc1 [indomethacin]
rise of PVR after liposomes with indomethacin treatment (miniature pigs): 20% | effect on pulmonary reaction to 5 mg liposome boluses ([1]; 5 mg/kg i.v., all tested pigs): completely suppressed

sCR1: Recombinant soluble complement receptor type 1
plasma clearance α-phase t1/2 [2]: 8.3 min | plasma clearance β-phase t1/2 [2]: 363 min | share of the drug clearing slowly [2]: 31% | dose providing complete suppression of SC5b-9 formation ([3]; LEH-induced): 20 µg/mL | doses significantly inhibiting LEH-induced complement activation [3]: > 0.8 µg/mL | dose providing complete suppression of Cremophor EL/ethanol-induced increase of SC5b-9 [4]: 1.8 µg/mL | doses significantly inhibiting Cremophor EL/ethanol-induced increase of SC5b-9 [4]: > 0.6 µg/mL | concentration range of potent inhibition of C-mediated harmful effects [5]: 10 to 40 µg/mL | inhibition of PAP response to 5 mg liposome boluses ([1]; 0.2 and 2 mg/kg i.v. (in 2-2 pigs), maximal inhibition): 30-100%
